Data as given in article PMC4457452 (2013).

How the values were obtained:
[1] = test system: cMYC19 (DNA, G4) AGGGTGGGGAGGGTGGGGA; assay: SPR steady state, two-site fit; details: 50 mM KCl; 10 mM HEPES, 3 mM EDTA, pH 7.3; site 1 of 2
[2] = test system: MYC22 (DNA, G4) TGAGGGTGGGGAGGGTGGGGAA; assay: 1H NMR imino proton titration; details: 20 mM potassium phosphate; pH 6.02, 35 °C, 100 µM; 3'-end tetrad first, then 5'-end tetrad
[3] = test system: AATT hairpin duplex (DNA, hairpin) CGAATTCGTTTTCGAATTCG; assay: UV thermal melting, 260 nm; details: 50 mM KCl, 10 mM TRIS, 3 mM EDTA, pH 7.3
[4] = test system: Tel22 (DNA, G4) AGGGTTAGGGTTAGGGTTAGGG; assay: SPR steady state, two-site fit; details: 50 mM KCl; 10 mM HEPES, 3 mM EDTA, pH 7.3; site 1 of 2
[5] = test system: Tel22 (DNA, G4) AGGGTTAGGGTTAGGGTTAGGG; assay: UV thermal melting, 295 nm; details: 50 mM KCl, 10 mM TRIS, 3 mM EDTA, pH 7.3
[6] = test system: AATT hairpin duplex (DNA, hairpin) CGAATTCGTTTTCGAATTCG; assay: SPR steady state; details: 50 mM KCl, 10 mM HEPES, 3 mM EDTA, pH 7.3
[7] = test system: AATT hairpin duplex (DNA, hairpin) CGAATTCGTTTTCGAATTCG; assay: SPR; details: 50 mM KCl; 10 mM HEPES, 3 mM EDTA, pH 7.3; ligand range 10 nM–10 µM
[8] = test system: Tel22 (DNA, G4) AGGGTTAGGGTTAGGGTTAGGG; assay: SPR; details: 50 mM KCl; 10 mM HEPES, 3 mM EDTA, pH 7.3; ligand range 10 nM–10 µM
[9] = test system: cMYC19 (DNA, G4) AGGGTGGGGAGGGTGGGGA; assay: SPR; details: 50 mM KCl; 10 mM HEPES, 3 mM EDTA, pH 7.3; ligand range 10 nM–10 µM

SMILES | K1 [1] [M⁻¹] | K1 [4] [M⁻¹] | ∆Tm ([3]; drug:DNA 6:1) [°C] | K1 [6] | ∆Tm ([5]; drug:DNA 6:1) [°C] | also measured
CC1(C)C(/C=C/C=C2/N(CCC[N+](C)(C)C)c3ccc(Br)cc3C2(C)C)=[N+](CCC[N+](C)(C)C)c2ccc(Br)cc21 | 1.2e+07 | 5.5e+06 |  |  |  | binding [2]: yes; ∆Tm ([3]; drug:DNA 6:1, DNA 3 µM): 0 °C; ∆Tm ([5]; drug:DNA 6:1, DNA 3 µM): 24 °C; K1 ([6]; up to 1 µM): < 10^5 M^−1
CC1(C)C(/C=C/C=C2/N(CCC[N+](C)(C)C)c3ccc(C(=O)O)cc3C2(C)C)=[N+](CCC[N+](C)(C)C)c2ccc(C(=O)O)cc21 | 5e+06 | 830000 | 3 | < 10^5 M^−1 |  | 
CC1(C)C(/C=C/C=C2/N(CCC[N+](C)(C)C)c3ccc(Cl)cc3C2(C)C)=[N+](CCC[N+](C)(C)C)c2ccc(Cl)cc21 | 8.4e+06 | 2.7e+06 |  | < 10^5 M^−1 | 19 | 
CC1(C)C(/C=C/C=C2/N(CCC[N+](C)(C)C)c3ccc(F)cc3C2(C)C)=[N+](CCC[N+](C)(C)C)c2ccc(F)cc21 | 6.3e+06 | 5.9e+06 |  | < 10^5 M^−1 |  | 
CC1(C)C(/C=C/C=C2/N(CCC[N+](C)(C)C)c3ccc(I)cc3C2(C)C)=[N+](CCC[N+](C)(C)C)c2ccc(I)cc21 | 7.8e+06 | 2.1e+06 | 3 | < 10^5 M^−1 | 21 | 
CC1(C)C(/C=C/C=C2/N(CCC[N+](C)(C)C)c3ccc(S(=O)(=O)O)cc3C2(C)C)=[N+](CCC[N+](C)(C)C)c2ccc(S(=O)(=O)O)cc21 | 570000 | 820000 |  | < 10^5 M^−1 | 1 | 
CC1(C)C(/C=C/C=C2/N(CCC[N+](C)(C)C)c3ccccc3C2(C)C)=[N+](CCC[N+](C)(C)C)c2ccccc21 | 3.8e+06 | 390000 | 2 |  | 14 | binding [2]: yes; K1 ([6]; up to 10 µM): < 10^5 M^−1
CC1(C)C(/C=C/C=C2/N(CCCc3ccccc3)c3ccccc3C2(C)C)=[N+](CCCc2ccccc2)c2ccccc21 | 1.2e+06 | 130000 |  | < 10^5 M^−1 | 11 | 
CCCCN1/C(=C/C=C/C2=[N+](CCCC)c3ccccc3C2(C)C)C(C)(C)c2ccccc21 |  |  |  |  | 0 | binding [7]: no; binding [8]: no; binding [9]: no
